# Read-outs that look alike come from different tables or passages of the source.
# Experiments:
# [1] = system: odor responses of mouse ORNs in olfactory epithelium slices; assay: co-application of odor and purinergic receptor agonist, calcium transients in olfactory epithelium slices; type: cell-based
# [2] = system: sustentacular cells in mouse olfactory epithelium slices; assay: confocal calcium imaging of fluo-4 AM loaded olfactory epithelium slices, sustentacular cells; type: cell-based; settings: for agonist-evoked calcium transients in sustentacular cells: 10 μM agonist superfused onto slice
# Text: (§1) To study the effects of ATP on odor responses, acutely prepared slices of mouse olfactory epithelium were used. Confocal imaging of fluo-4 AM-loaded olfactory epithelium slices allows simultaneous recording from identified structures within the olfactory epithelium, i.e., both ORNs and sustentacular cells. […] The difference in robustness can be due to poor access to the ATP stimulus: odorant receptors are on the cilia of the ORNs, which extend beyond the outer edge of the olfactory epithelium, whereas purinergic receptors are located deeper within the olfactory epithelium. […] The latency of activation for the ATP-evoked calcium transient was shorter in the ORN (FIG. 3B2, solid up arrowhead) than in sustentacular cells (FIG. 3B3, open down arrowhead). Collectively, this was consistent with ORNs expressing the faster P2X receptors, and the sustentacular cells expressing the slower G-protein coupled P2Y receptors.
# (§2) To prepare olfactory epithelium slices, neonatal mice (postnatal day 0-6) were quickly decapitated, and the skin and lower jaw were removed. Tissue was mounted in ice cold Ringers onto a vibratome-cutting block and 300 μm slices were made. Primary cultures of mouse ORNs were made using the same protocol and culture conditions as described for rat olfactory receptor neurons (Vargas and Lucero, 1999a). Briefly, tissue was placed in divalent cation-free Ringers containing 10 mg/ml bovine serum albumin, 1 mg/ml deoxyribonuclease II and 44 U/ml dispase, incubated at 37° C. for 45 min. The tissue was washed, triturated, and filtered through a […] mesh and […] cells were plated onto concanavalin A-coated coverslips and allowed to settle for 20 min. An additional 1.5 ml of culture medium was added (DMEM supplemented with […] ascorbic acid, 1X insulin-transferrin-seleniumX (GIBCO BRL), 2 mM glutamine, 100 U/ml penicillin G and […] streptomycin).
# (§3) [Ca^2+]i was determined using confocal imaging of fluo-4 AM (18 μM; Molecular Probes) loaded cells and slices. Cells or slices were placed in a laminar flow chamber (Warner Instruments) and perfused continuously with Ringers solution at a flow rate of 1.5-2.0 ml/min. Ringers contained (mM): 140 NaCl, 5 KCl, 1 MgCl2, 2 CaCl2, 10 HEPES, 10 glucose, […] and 400 nM tetrodotoxin. Test solutions were applied using bath exchange and a small volume loop injector (200 μl). A Zeiss LSM 510 confocal laser scanning system was used for data collection and analysis. Time series experiments were performed collecting 1400×700 pixel images at 0.2-0.4 Hz. The fluorometric signals obtained are expressed as relative fluorescence change, ΔF/F═(F−F0)/F0, where F0 is the basal fluorescence level. Increases in F greater than 10% above baseline noise were considered responses.
# [3] = system: ORNs in mouse olfactory epithelium slices; assay: confocal calcium imaging of fluo-4 AM loaded olfactory epithelium slices, ORNs; type: cell-based; settings: for agonist-evoked calcium transients in ORNs: 10 μM agonist superfused onto slice; for evoked calcium transients in olfactory epithelial slices: superfused onto olfactory epithelial slices (ORNs and sustentacular cells)
# Text: as §1, §2, §3
# P2Y11 = target: T1, P2Y11 (Homo sapiens, UniProt Q96G91); settings: cDNA from Human placenta; cited from earlier work
# T1 sequence (Q96G91 1-374): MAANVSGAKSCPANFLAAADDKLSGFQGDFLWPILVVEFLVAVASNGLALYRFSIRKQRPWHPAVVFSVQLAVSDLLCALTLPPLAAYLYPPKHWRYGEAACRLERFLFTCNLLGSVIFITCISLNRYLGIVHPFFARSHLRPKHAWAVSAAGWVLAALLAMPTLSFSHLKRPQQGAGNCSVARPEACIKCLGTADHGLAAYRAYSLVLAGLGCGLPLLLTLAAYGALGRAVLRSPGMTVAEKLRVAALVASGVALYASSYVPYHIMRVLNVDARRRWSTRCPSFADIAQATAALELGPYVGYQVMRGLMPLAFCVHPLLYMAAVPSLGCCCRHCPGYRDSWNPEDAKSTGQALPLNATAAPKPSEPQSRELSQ
# P2Y1 [4] = target: P2Y1 (Rattus norvegicus, UniProt P49651); settings: cited from earlier work
# Sequence of P2Y1 (Rattus norvegicus, UniProt P49651) (P49651 whole entry): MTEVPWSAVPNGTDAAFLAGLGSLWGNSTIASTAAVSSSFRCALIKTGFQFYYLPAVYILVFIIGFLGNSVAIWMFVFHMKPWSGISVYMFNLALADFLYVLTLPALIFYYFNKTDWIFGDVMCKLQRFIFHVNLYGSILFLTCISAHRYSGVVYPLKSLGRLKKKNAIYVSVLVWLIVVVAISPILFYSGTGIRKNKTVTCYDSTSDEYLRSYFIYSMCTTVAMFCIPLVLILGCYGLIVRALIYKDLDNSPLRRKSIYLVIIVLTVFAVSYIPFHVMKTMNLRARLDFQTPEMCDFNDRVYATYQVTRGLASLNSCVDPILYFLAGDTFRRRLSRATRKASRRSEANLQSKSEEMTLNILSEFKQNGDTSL
# P2X7 = target: T2, P2X7 (Rattus norvegicus, UniProt Q64663); settings: cDNA from Rat macrophage and brain; cited from earlier work
# T2 construct: host or cells: Xenopus oocytes
# T2 sequence (Q64663 1-595): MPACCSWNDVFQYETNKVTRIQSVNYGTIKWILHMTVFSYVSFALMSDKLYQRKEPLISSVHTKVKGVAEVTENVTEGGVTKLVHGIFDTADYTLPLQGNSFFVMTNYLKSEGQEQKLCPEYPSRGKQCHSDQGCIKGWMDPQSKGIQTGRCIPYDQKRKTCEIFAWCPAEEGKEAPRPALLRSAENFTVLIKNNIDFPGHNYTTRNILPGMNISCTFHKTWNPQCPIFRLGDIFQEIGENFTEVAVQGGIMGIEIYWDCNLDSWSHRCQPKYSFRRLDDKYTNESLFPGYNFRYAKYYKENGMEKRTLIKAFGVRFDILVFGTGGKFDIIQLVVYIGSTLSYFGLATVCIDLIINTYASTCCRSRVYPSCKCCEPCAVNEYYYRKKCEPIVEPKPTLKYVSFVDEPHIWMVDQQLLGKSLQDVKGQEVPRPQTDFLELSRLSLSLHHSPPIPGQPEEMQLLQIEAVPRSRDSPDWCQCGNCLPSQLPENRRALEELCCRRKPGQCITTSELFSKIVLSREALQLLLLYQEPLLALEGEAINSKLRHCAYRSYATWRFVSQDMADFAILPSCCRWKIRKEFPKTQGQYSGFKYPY
# P2Y1 [5] = target: P2Y1 (Gallus gallus, UniProt P34996); settings: cDNA from Chick brain; cited from earlier work
# Sequence of P2Y1 (Gallus gallus, UniProt P34996) (P34996 whole entry): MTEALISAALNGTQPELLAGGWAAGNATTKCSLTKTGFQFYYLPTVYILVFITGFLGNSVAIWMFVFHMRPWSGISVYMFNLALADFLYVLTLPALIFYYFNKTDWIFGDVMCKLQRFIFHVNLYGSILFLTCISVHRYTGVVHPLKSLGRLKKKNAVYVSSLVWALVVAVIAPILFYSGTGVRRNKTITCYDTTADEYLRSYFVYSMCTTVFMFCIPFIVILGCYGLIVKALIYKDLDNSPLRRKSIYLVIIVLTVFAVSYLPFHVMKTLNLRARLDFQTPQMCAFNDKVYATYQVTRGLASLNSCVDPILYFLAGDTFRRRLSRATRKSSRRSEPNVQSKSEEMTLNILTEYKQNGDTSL
# P2Y1 [6] = target: P2Y1 (Meleagris gallopavo, UniProt P49652); settings: cDNA from Turkey brain; cited from earlier work
# Sequence of P2Y1 (Meleagris gallopavo, UniProt P49652) (P49652 whole entry): as the sequence (P34996 whole entry) above, with T28S counted along it
# P2X5 = target: T3, P2X5 (Rattus norvegicus, UniProt P51578); settings: cDNA from Rat ganglia; cited from earlier work
# T3 construct: host or cells: Xenopus oocytes
# T3 sequence (P51578 1-455): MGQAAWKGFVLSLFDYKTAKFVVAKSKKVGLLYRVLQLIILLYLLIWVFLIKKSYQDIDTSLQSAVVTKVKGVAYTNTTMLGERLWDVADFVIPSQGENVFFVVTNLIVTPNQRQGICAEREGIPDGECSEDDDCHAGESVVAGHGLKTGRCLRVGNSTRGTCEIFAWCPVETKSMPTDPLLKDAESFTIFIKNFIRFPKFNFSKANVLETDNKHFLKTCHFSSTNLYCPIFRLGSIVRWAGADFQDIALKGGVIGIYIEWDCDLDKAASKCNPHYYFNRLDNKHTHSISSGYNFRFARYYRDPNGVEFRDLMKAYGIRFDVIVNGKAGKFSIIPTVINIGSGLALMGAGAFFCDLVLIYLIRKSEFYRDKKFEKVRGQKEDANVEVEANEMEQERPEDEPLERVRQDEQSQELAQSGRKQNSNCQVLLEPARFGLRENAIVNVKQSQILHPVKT
# P2X4 = target: T4, P2X4 (Rattus norvegicus, UniProt P51577); settings: cDNA from Rat superior cervical ganglion; cited from earlier work
# T4 construct: host or cells: Xenopus oocytes
# T4 sequence (P51577 1-388): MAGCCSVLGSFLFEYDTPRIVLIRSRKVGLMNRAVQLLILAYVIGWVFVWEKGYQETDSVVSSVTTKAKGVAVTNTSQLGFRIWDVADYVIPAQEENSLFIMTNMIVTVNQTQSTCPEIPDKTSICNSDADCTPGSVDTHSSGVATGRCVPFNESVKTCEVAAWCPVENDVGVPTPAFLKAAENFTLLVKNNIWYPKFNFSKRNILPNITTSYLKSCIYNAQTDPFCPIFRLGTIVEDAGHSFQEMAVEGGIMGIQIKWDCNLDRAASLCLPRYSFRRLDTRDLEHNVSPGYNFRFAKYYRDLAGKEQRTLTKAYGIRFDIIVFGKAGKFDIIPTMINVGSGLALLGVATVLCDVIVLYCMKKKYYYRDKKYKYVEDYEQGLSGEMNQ
# P2X2 = target: T5, P2X2 (Rattus norvegicus, UniProt P49653); settings: cDNA from Rat PC12 cells; cited from earlier work
# T5 construct: host or cells: Xenopus oocytes
# T5 sequence (P49653 1-472): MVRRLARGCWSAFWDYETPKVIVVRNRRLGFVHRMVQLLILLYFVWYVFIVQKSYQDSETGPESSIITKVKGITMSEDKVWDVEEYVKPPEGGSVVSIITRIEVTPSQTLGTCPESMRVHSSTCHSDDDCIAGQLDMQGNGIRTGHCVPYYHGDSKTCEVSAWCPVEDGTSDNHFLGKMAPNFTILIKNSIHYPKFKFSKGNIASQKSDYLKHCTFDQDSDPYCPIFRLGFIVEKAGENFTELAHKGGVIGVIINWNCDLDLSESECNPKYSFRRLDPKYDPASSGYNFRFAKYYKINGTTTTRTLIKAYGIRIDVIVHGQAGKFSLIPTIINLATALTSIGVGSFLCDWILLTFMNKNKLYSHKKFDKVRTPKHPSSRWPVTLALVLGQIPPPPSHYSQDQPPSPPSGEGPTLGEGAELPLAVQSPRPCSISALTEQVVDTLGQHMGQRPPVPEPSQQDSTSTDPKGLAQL
# P2X6 = target: T6, P2X6 (Rattus norvegicus, UniProt P51579); settings: cDNA from Rat superior cervical ganglion; cited from earlier work
# T6 construct: host or cells: Xenopus oocytes
# T6 sequence (P51579 whole entry): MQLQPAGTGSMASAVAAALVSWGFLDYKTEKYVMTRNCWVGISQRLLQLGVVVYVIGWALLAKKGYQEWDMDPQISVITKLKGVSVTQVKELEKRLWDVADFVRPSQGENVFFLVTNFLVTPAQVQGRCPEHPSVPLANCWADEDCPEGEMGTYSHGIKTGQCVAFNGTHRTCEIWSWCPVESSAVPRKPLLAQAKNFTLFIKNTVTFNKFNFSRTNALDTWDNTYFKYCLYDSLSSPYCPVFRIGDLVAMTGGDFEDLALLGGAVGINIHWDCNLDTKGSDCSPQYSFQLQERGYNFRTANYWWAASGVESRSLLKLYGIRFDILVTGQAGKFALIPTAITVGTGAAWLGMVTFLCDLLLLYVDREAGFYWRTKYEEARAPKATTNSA
# [7] = co-application of 10 μM βγ-methylene ATP and odor, 2/16 cells
# [8] = sustentacular cells, PPADS, n=30
# [9] = ORNs, PPADS 25 μm, reversible, n=5
compound,measurement,setting,value
"Nc1ncnc2c1ncn2[C@@H]1O[C@H](COP(=O)(O)OP(=O)(O)CP(=O)(O)O)[C@@H](O)[C@H]1O [βγ-methylene ATP, β,γ-methylene ATP]",ORNs with enhanced calcium transient amplitude,"[1]; co-application of 10 μM βγ-MeATP and odors, 2 slices",2/16
same,ORNs with suppressed calcium transient amplitude,"[1]; co-application of 10 μM βγ-MeATP and odors, 6 slices",12/16
same,change of amplitude in cells with no effect,[1]; [7],15±1%
same,enhancement of calcium transient amplitude,[1]; [7],168±44%
same,suppression of Ca2+ transient amplitude,"[1]; co-application of 10 μM βγ-methylene ATP and odor, 2/16 cells as printed",42±5%
same,"reduction in the average amplitude of the Ca2+ transient, overall","[1]; co-application of 10 μM βγ-methylene ATP and odor, 16/16 cells",25±11%
same,agonist-evoked calcium transients in sustentacular cells,[2],not the sustentacular cells
same,agonist-evoked calcium transients in ORNs,[3],responded
Nc1ncnc2c1ncn2[C@@H]1O[C@H](COP(=O)(O)O)[C@@H](O)[C@H]1O [AMP],evoked calcium transients in olfactory epithelial slices,[3],never observed
O=c1ccn([C@@H]2O[C@H](COP(=O)(O)OP(=O)(O)O)[C@@H](O)[C@H]2O)c(=O)[nH]1 [UDP],Agonist activity,P2Y11,"(UTP, UDP inactive)"
O=c1ccn([C@@H]2O[C@H](COP(=O)(O)OP(=O)(O)OP(=O)(O)O)[C@@H](O)[C@H]2O)c(=O)[nH]1 [UTP],effect on co-application evoked calcium transient,[1]; P2Y selective agonists co-applied with odor,suppressed the co-application evoked calcium transient
same,agonist-evoked calcium transients in sustentacular cells,[2],evoked calcium transients
same,Agonist activity,P2Y1 [4]; cDNA from Rat ileal myocytes,(UTP inactive)
same,Agonist activity,P2X7,BzATP > ATP > 2MeSATP > ADP; UTP inactive
same,Agonist activity,P2Y11,"(UTP, UDP inactive)"
same,Agonist activity,P2Y1 [5],2MeSATP > ATP > ADP; (UTP inactive)
same,Agonist activity,P2Y1 [6],2MeSATP > ADP > ATP; (UTP inactive)
same,agonist-evoked calcium transients in ORNs,[3],evoked calcium transients
"Cc1nc(N=Nc2ccc(S(=O)(=O)O)cc2S(=O)(=O)O)c(COP(=O)(O)O)c(C=O)c1O [PPADS, pyridoxalphosphate-6-azophenyl-2′,4′-disulfonic acid]",block of ATP-evoked Ca2+ transients,[2]; [8],82±2%
same,block of UTP-evoked Ca2+ transients,[2]; [8],76±2%
same,block of ATP-evoked calcium transients,[3]; [9],87±5%
same,block of UTP-evoked calcium transients,[3]; [9],92±3%
Nc1ncnc2c1ncn2[C@@H]1O[C@H](CO)[C@@H](O)[C@H]1O [Adenosine],evoked calcium transients in olfactory epithelial slices,[3],never observed
"Nc1ncnc2c1ncn2[C@@H]1O[C@H](COP(=O)(O)CP(=O)(O)OP(=O)(O)O)[C@@H](O)[C@H]1O [α,β-meATP, α,β-methylene ATP]",Agonist activity,P2X5,"α,β-meATP inactive"
same,Agonist activity,P2Y1 [4]; cDNA from Rat insulinoma cells,"(α,β-meATP inactive)"
same,Agonist activity,P2X4,"ATP; α,β-meATP inactive"
same,Agonist activity,P2X2,"2MeSATP > ATP; α,β-meATP inactive"
same,Agonist activity,P2X6,"ATP > 2MeSATP > ADP; α,β-meATP inactive"

# Reference: US7557092B2, “Purinergic modulation of smell” (University of Utah Research Foundation, priority 2002, dated 2009)
